Experimental findings from patent US9040568B2, “Pharmaceutical compositions for the treatment of pain” (AbbVie Inc., priority 2009, dated 2015) are described below.

Structures are written as SMILES. Where a name gives a salt, the structure may show the parent alone.

Assay [1] deals with T1, human α4β2 nicotinic acetylcholine receptor subtype expressed in HEK-293 cells (Homo sapiens, UniProt P17787+P43681).
T1 construct: expressed in transfected cells
Put plainly: Calcium flux assay (FLIPR) in HEK-293 cells expressing human α4β2. It counts as cell-based. The method, then: Calcium Flux Assays Using Cells Expressing nAChR Subtypes
Human embryonic kidney (HEK) 293 cells stably expressing human α4β2 or α3β4 combinations are grown to confluency in 162 cm^2 tissue culture flasks in DMEM media supplemented with 10% FBS and 25 μg/ml zeocin and 200 μg/ml hygromycin B. IMR-32 neuroblastoma cells (ATCC) are grown to confluency in 162 cm^2 tissue culture flasks in minimum essential media supplemented with 10% FBS and 1 mM sodium pyruvate, 1% non-essential amino acids and 1% antibiotic-antimycotic. The cells are then dissociated using cell dissociation buffer and 100-150 μl per well of 3.5×10^5 cells/ml cell suspension (˜50,000-100,000 cells/well) was plated into 96-well black plates (poly-D-lysine precoated) with clear bottom and maintained for 24-48 hours in a tissue culture incubator at 37° C. under an atmosphere of 5% CO2: 95% air. Other clonal cell lines or primary cell cultures that express endogenous α4* nicotinic receptors may also be used in this assay. Calcium flux was measured using calcium-3 assay kit (Molecular Devices, Sunnyvale, Calif.) or fluo-4 (Invitrogen). A stock solution of the dye was prepared by dissolving each vial supplied by the vendor in Hank's balanced salt solution buffer (HBSS) or 150 mM NMDG, 20 mM CaCl2 containing 10 mM HEPES, The stock solution was diluted 1:20 using the same buffer before use. The growth media was removed from the cells. The cells were loaded with 100 μl of the dye per well and incubated at room temperature for up to one hour for HEK 293 clonal stable cell lines or 30 minutes-45 minutes at 37° C. for IMR-32 cells Fluorescence measurements were read simultaneously from all the wells by a Fluorometic Imaging Plate Reader (FLIPR) at an excitation wavelength of 480 nm and an emission wavelength of 520 nm. Baseline fluorescence was measured for the first 6 seconds at which 3× concentrations of modulator/test compounds were added to the cell plate at 50 μl and incubated for five minutes. The fluorescence intensity was captured every second for the first 1 minute followed by every 5 seconds for an additional 4 minutes. This procedure was followed by 50 μl of 4× concentration of agonist and readings were taken for a period of 3-5 minutes as described above. Data was normalized to maximal responses and plotted as a function of concentration. The concentration dependence of changes fluorescence responses was fitted by nonlinear regression analysis (GraphPad Prism, San Diego, Calif.) to obtain EC50 values.
The positive allosteric modulator effects on α4β2nAChRs exemplified by 3-(3-pyridin-3-yl-1,2,4-oxadiazol-5-yl)benzonitrile (Compound 1) and 3,5-di(pyridin-3-yl)-1,2,4-oxadiazole (Compound 2) can be identified by measuring their potentiating effect to fluorescence changes in intracellular calcium using a fluorimetric plate reader. The potentiating effect of an α4β2 modulator on α4β2 receptor can also be illustrated by concentration responses to α4β2 agonists, for example 5-[(2R)-azetidin-2-ylmethoxy]-2-chloropyridine (Compound A) and (3R)-1-pyridin-3-ylpyrrolidin-3-amine (Compound B), in presence of a fixed concentration of PAM. […] In addition to compound A and B, other known nicotinic agonists can be left-shifted in presence of α4β2 PAM such as 3-(3-(pyridin-3-yl)-1,2,4-oxadiazol-5-yl)benzonitrile (Compound 1, FIG. 2C). […]
A general note: A change in cytosolic calcium serves as a functional read-out for many receptors and channels.

A further assay deals with α4β2 nAChR (UniProt P09483+P12390). Put plainly: [^3H]-cytisine binding assay. An excerpt:
One manner for characterizing α4β2 receptor ligands is by a binding assay. […] The [^3H]-cytisine binding assays have been well reported; however, further details for carrying out the assays can be obtained in International Publication No. WO 99/32480; U.S. Pat. Nos. 5,948,793 and 5,914,328; WO 2004/018607; U.S. Pat. No. 6,809,105; WO 00/71534; and U.S. Pat. No. 6,833,370.

Assay [2] has as its system nerve injury induced mechanical allodynia. Put plainly: Chung model of neuropathic pain (L5-L6 spinal nerve ligation, tactile allodynia, von Frey). The format is in vivo, rat. The method, then:
To assess whether α4β2 PAM can increase antinociceptive responses of agonists in vivo, the following study was conducted. The materials and methods used to accomplish the study follow.
Male Sprague-Dawley rats (Charles River, Wilmington, Mass.) weighing 120-150 grams at time of surgery were utilized. These animals were group housed in AAALAC approved facilities at Abbott Laboratories in a temperature-regulated environment with lights on between 0700 and 2000 hours. Food and water was available ad libitum except during testing. All animal handling and experimental protocols were approved by an institutional animal care and use committee (IACUC). All experiments were performed during the light cycle.
5[(2R)-Azetidin-2-ylmethoxy]-2-chloropyridine (Compound A, 1-100 nmol/kg) and 3-(3-pyridin-3-yl)-1,2,4-oxadiazol-5-yl)benzonitrile (α4β2 PAM Compound 1, 1-35 μmol/kg, i.p.) was used. Compound A and D was prepared in saline and injected in solution in a volume of 2 ml/kg body weight 30 minutes before behavioral evaluation. Compound 1,3-(3-(pyridin-3-yl)-1,2,4-oxadiazol-5-yl)benzonitrile, was prepared in 30% hydroxybetacyclodextrin and injected in solution in a volume of 4 ml/kg body weight immediately before Compound A. For studies with Compound D, the doses tested ranged from 0.3-30 μmol/kg i.p.
To produce neuropathic pain, tight ligation of the L5-L6 spinal nerves was performed. As previously described in detail by Kim and Chung (Kim S H and Chung J M (1992), Pain 50: 355), following sterilization procedures, a 1.5 cm incision was made dorsal to the lumbosacral plexus. The paraspinal muscles (left side) were separated from the spinous processes, the L5 and L6 spinal nerves isolated, and tightly ligated with 3-0 silk thread. Following hemostasis, the wound was sutured and coated with antibiotic ointment. The rats were allowed to recover and then placed in a cage with soft bedding for 7-14 days before behavioral testing for mechanical allodynia.
Tactile allodynia was measured using calibrated (force; g) von Frey filaments (Stoelting, Wood Dale, Ill.). Briefly, rats were placed into individual plexiglass containers and allowed to acclimate for 15-20 minutes before testing. Withdrawal threshold was determined by increasing and decreasing stimulus intensity and estimated using a Dixon non-parametric test (Chaplan et al., 1994; Chaplan S R, Bach F W, Pogrel J W, Chung J M and Yaksh T L (1994) J Neurosci Methods 53:55-63). Only rats with threshold scores<4.5 g were considered allodynic and utilized in further testing. A percent of maximal possible effect (% M.P.E.) of the tested compounds was calculated according to the formula: ([post-drug threshold]-[baseline threshold])/([maximum threshold]-[baseline threshold])×100%, where maximum threshold was equal to 15 g.
Analysis of the in vivo data was carried out using analysis of variance. Where appropriate, Bonferroni's Multiple Comparison Test was used for post-hoc analysis. The level of significance was set at p less than 0.05. Data are presented as mean±S.E.M.

Another assay deals with T2, α4β2nAChR modulator site (Homo sapiens, UniProt P17787+P43681).
T2 construct: membrane enriched fractions from human cortex (ABS Inc., Wilmington, Del.); tissue ABS Inc., Wilmington, Del; host or cells: human cortex (frontal cortex) membrane enriched fractions
Put plainly: [^3H]-POB binding, membrane enriched fractions from human cortex. Conditions: saturation binding, human frontal cortex membranes, 4° C. The method, then: In addition to the assays previously described for assessing nicotinic acetylcholine receptor positive allosteric modulators (fluoroscence-based measurements, electrophysiology measurements using Xenopus oocytes or cell lines), the receptor interactions of positive allosteric modulators at α4β2 nAChRs also can be evaluated according to the [^3H]-POB binding assay, which was performed as described below.
[^3H]-POB ([^3H]-3-(5-(pyridin-3-yl)-1,2,4-oxadiazol-3-yl)benzonitrile) binding to a α4β2nAChR modulator site was determined using membrane enriched fractions from human cortex (ABS Inc., Wilmington, Del.). […] Non-specific binding was determined in the presence of 30 μM unlabeled 3-(5-(pyridin-3-yl)-1,2,4-oxadiazol-3-yl)benzonitrile. Under these conditions, saturable binding of [^3H]-POB binding was measured in membrane enriched fractions from human frontal cortex (FIG. 10). […]
For use in concentration-inhibition assays, seven log-dilution concentrations of test compounds containing […] of protein, and 50 nM [^3H]-POB (16.4 Ci/mmol) were incubated in a final volume of 500 μL for 75 minutes at 4° C. in duplicate. Non-specific binding was determined in the presence of 30 μM 3-(5-(pyridin-3-yl)-1,2,4-oxadiazol-3-yl)benzonitrile. […] IC50 values were determined by nonlinear regression in Microsoft® Excel or Assay Explorer. […]

The mark [3] stands for this setting: co-applied with the PAM Compound 1, α4β2 nAChRs.

As a reminder, the Ki is the dissociation constant of the complex between target and ligand, obtained from inhibition or displacement. A lower Ki goes with higher affinity.

T1 sequence (P43681 29-627 limits assumed): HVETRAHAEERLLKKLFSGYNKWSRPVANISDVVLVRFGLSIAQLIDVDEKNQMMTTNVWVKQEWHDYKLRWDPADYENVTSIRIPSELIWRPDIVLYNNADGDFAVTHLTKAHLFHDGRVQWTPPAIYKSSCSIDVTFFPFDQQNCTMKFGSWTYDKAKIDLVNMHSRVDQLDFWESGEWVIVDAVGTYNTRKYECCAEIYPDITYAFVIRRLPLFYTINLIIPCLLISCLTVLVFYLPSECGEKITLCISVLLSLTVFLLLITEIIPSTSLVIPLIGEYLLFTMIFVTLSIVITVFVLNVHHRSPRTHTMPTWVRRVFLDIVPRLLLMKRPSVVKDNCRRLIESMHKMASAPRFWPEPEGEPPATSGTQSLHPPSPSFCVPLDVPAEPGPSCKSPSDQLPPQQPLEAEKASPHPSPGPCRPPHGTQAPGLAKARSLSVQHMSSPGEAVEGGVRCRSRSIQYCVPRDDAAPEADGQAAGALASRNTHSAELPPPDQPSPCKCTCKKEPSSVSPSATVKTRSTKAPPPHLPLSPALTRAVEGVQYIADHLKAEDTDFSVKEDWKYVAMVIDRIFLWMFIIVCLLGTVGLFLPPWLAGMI
T1 sequence (P17787 26-502): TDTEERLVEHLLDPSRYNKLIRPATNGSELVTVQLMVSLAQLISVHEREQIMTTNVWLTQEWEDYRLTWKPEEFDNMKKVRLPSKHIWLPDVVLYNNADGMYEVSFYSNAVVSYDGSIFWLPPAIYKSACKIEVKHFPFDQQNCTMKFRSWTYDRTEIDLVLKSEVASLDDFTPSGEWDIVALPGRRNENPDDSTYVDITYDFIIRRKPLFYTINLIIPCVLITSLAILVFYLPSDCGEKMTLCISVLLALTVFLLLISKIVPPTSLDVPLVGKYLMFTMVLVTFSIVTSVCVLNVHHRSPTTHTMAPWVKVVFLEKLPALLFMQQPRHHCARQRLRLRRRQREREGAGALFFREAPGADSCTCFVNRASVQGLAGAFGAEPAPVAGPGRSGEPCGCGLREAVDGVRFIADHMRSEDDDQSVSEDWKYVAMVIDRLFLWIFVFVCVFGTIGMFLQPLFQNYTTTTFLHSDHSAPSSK
T2 sequence (P43681 29-627 limits assumed): as the sequence (P43681 29-627 limits assumed) above
T2 sequence (P17787 26-502): as the sequence (P17787 26-502) above

For the compound `Fc1ccc(-c2nc(-c3cncnc3)no2)cc1F` [Example 101, 5-(3,4-difluorophenyl)-3-(pyrimidin-5-yl)-1,2,4-oxadiazole tosylate], the “Activity (allosteric effects-potentiation of fluorescence responses)” value in assay [1] is reported as “a (“a” denotes as activity range from 200-400%)”.

With `c1ccc2ncc(N3C[C@@H]4CN[C@@H]4C3)cc2c1` [Compound D, (1S,5S)-3-(3,6-diaza-bicyclo[3.2.0]hept-3-yl)-quinoline], the calcium response entry in assay [1] (setting [3]) is on record as “evoked robust responses”; in assay [1] (ligand alone, α4β2 nAChRs), “does not evoke a response”. The same compound returned an inhibition constant Ki on α4β2 nAChR of 6 nM. Further, the “efficacy in neuropathic pain” value in assay [2] (administered alone) was “ineffective in reversing neuropathic pain”; in assay [2] (combined with the PAM (Compound 1)) it was “significant efficacy can be realized”.

Take `Cc1ncccc1OC[C@@H]1CCCN1` [Compound C, 2-methyl-3-(2-(S)-pyrrolidinylmethoxy)pyridine]: the calcium response result in assay [1] (setting [3]) is on record as “evoked robust responses”; in assay [1] (ligand alone, α4β2 nAChRs), “does not evoke a calcium response”.

Compound `[3H]c1cncc(-c2nc(-c3cccc(C#N)c3)no2)c1` [[^3H]-POB, [^3H]-3-(5-(pyridin-3-yl)-1,2,4-oxadiazol-3-yl)benzonitrile] gave a Bmax on α4β2nAChR modulator site of 2900±500 fmol/mg protein.
